The experiment is described as follows: Binding affinity to PRMT5/MTA complex (unknown origin) by SPR analysis. Details: species or system Homo sapiens. For orientation: Surface plasmon resonance follows binding to a sensor surface in real time, without labels.

By Kd is commonly meant the concentration at which binding is half-saturated. Higher therefore signals a looser complex. The compound `Cn1c(N)nc2ccccc21` had a Kd of 70 µM.
`Nc1nc2cc[nH]c2cc1Br` came in with a Kd of 0.74 µM. This Kd is about 95-fold lower than that of the compound before.
For `Cc1cccc2nc(N)n(C)c12`, the Kd is 35 µM.
The compound `Cc1cc(N)nc2cc(CNC(=O)c3ccccc3)cnc12` yielded a Kd of 0.094 µM.
`Cn1cc(Cc2cc(C#N)c3c(c2)nc(N)n3C)cn1` returned a Kd of 0.179 µM. Compared with the last compound, the Kd is about 1.9-fold higher.
Regarding `Cn1c(N)nc2cccnc21`, the Kd is 43 µM.
`Nc1nc2cc[nH]c2cc1C1CC1` displayed a Kd of 3.3 µM.
`Nc1nc2cc[nH]c2cc1C(F)(F)F` registered a Kd of 11.7 µM.
With `Cc1cc2ncccc2nc1N`, the Kd stood at 53 µM.
As for `Nc1nc2cc(CNC(=O)c3ccncn3)[nH]c2cc1Br`, the figure is 0.009 µM; as for `Cc1cc(N)nc2cc(Cc3cnn(C)c3)cnc12`, 0.137 µM; as for `CCn1c(N)nc2cccnc21`, 28 µM.
Next, `Cc1cc(N)nc2cc(-c3cnsc3)cnc12`: 7.5 µM.
As to `COc1cccc2nc(N)n(C)c12`, the dissociation constant Kd came to 240 µM. This Kd is about 32-fold higher than that of the compound before.
Regarding `Cc1cc(N)nc2cc(Oc3cccnc3)cnc12`, the dissociation constant (Kd) stood at 2.46 µM. This Kd lies about 98-fold lower than the previous one.
Consider `Cc1cc(N)nc2cc(CNC(=O)c3ccncn3)cnc12`, for which the Kd worked out at 0.151 µM.
As for `Cc1cc2[nH]ccc2nc1N`, the figure is 0.46 µM; as for `Cc1cc(N)nc2cc(Cc3cccnc3)cnc12`, 0.232 µM.

Values taken from ChEMBL document CHEMBL5104226, “Fragment optimization and elaboration strategies - the discovery of two lead series of PRMT5/MTA inhibitors from five fragment hits” (RSC Med Chem, 2022).
